According to the NIST ThermoML archive (doi:10.1016/j.jct.2018.05.012):

Assay: xn = mol fraction of the nth substance listed
Details: 100 kPa, Liquid; for speed of sound: Frequency=3 MHz, Single path-length method; for mass density: Vibrating tube method

C1COCO1 [1,3-dioxolane] + C1COCCO1
Details	mass density, 293.15 K [kg/m3]	mass density, 298.15 K [kg/m3]	mass density, 303.15 K [kg/m3]	mass density, 308.15 K [kg/m3]	speed of sound, 293.15 K [m/s]	speed of sound, 298.15 K [m/s]	speed of sound, 303.15 K [m/s]	speed of sound, 308.15 K [m/s]
x1 = 0.1184	1036.5	1030.8	1025.1	1019.3	1367	1345.1	1323.5	1301.6
x1 = 0.1694	1037.8	1032.1	1026.4	1020.6	1366.7	1344.8	1323.1	1301.2
x1 = 0.2145	1039	1033.3	1027.5	1021.7	1366.4	1344.5	1322.8	1300.8
x1 = 0.2632	1040.4	1034.6	1028.8	1022.9	1366.1	1344.1	1322.4	1300.5
x1 = 0.3154	1041.8	1036.1	1030.2	1024.3	1365.8	1343.8	1322.1	1300.1
x1 = 0.3689	1043.3	1037.6	1031.7	1025.8	1365.5	1343.5	1321.7	1299.7
x1 = 0.4184	1044.8	1039	1033.1	1027.2	1365.2	1343.1	1321.3	1299.4
x1 = 0.4697	1046.3	1040.5	1034.6	1028.6	1364.9	1342.8	1321	1299
x1 = 0.5124	1047.6	1041.8	1035.8	1029.9	1364.6	1342.5	1320.7	1298.7
x1 = 0.5674	1049.4	1043.6	1037.5	1031.5	1364.3	1342.1	1320.3	1298.3
x1 = 0.6282	1051.4	1045.5	1039.5	1033.4	1363.9	1341.7	1319.8	1297.9
x1 = 0.6734	1052.9	1047	1040.9	1034.8	1363.6	1341.4	1319.5	1297.5
x1 = 0.7231	1054.6	1048.7	1042.6	1036.5	1363.3	1341	1319.1	1297.1
x1 = 0.7626	1055.9	1050.1	1043.9	1037.8	1363	1340.7	1318.8	1296.8
x1 = 0.7992	1057.2	1051.4	1045.2	1039	1362.7	1340.4	1318.5	1296.5
x1 = 0.8486	1059	1053.1	1046.9	1040.7	1362.4	1340	1318.1	1296.1
x1 = 0.8815	1060.2	1054.3	1048.1	1041.9	1362.1	1339.8	1317.8	1295.8
x1 = 0.9102	1061.3	1055.4	1049.1	1042.9	1361.9	1339.5	1317.5	1295.5
